Five compounds from ChEMBL document CHEMBL1201862, “PubChem BioAssay data set” (2004) can be followed below.

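Results reflect a 48-hour exposure of cells in 96-well plates to compound at five concentrations. GI50 marks 50% less growth.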 Activity calls are given as the source filed them. Rule as the data show it: active = GI50 up to about 1.1 µM and inactive = higher.

Some test systems named below: KM12; M14; OVCAR-4; SK-MEL-2; SN12C; SNB-75; HT-29; SK-MEL-5; NCI-H522; IGROV-1; TK-10; Malme-3M; CCRF-CEM; OVCAR-3; CAKI-1; UACC-62.
Assay in all cases: NCI anticancer screen, dose series, 48 h

In the case of `CCN(CC)C(=S)SCC(=O)Nc1nc2c(s1)CCCC2`, the GI50 in the assay with KM12 was > 100 µM (inactive); in the assay with M14, > 100 µM (inactive); in the assay on OVCAR-4, > 100 µM (inactive); in the assay with SK-MEL-2, > 100 µM (inactive); with SN12C, > 100 µM (inactive); in the assay with SNB-75, 72.6 µM (inactive). Besides, the GI50 in the assay with HT-29 was 59.8 µM (inactive); with SK-MEL-5, 26 µM (inactive); in the assay on NCI-H522, 28 µM (inactive); in the assay with IGROV-1, > 100 µM (inactive); in the assay with TK-10, > 100 µM (inactive); in the assay on Malme-3M, > 100 µM (inactive). For the same compound, the GI50 in the assay on CCRF-CEM was 49.4 µM (inactive).

As for `CCC(=O)OC1CCn2c1nc1c2C(=O)C(C)=C(NC(C)=O)C1=N` (centres undefined), the GI50 in the assay on KM12 is 2.11 µM (inactive); in the assay with OVCAR-4, 1.35 µM (inactive); with SK-MEL-2, 1.75 µM (inactive); in the assay with OVCAR-3 it was 0.453 µM (active); in the assay on SN12C, 1.6 µM (inactive); in the assay with SNB-75, 2.48 µM (inactive). In addition, the GI50 in the assay on HT-29 is 1.61 µM (inactive); with SK-MEL-5, 1.29 µM (inactive); in the assay with CAKI-1, 0.653 µM (active); in the assay with UACC-62, 1.32 µM (inactive); with NCI-H522, 1.39 µM (inactive); with IGROV-1 it was 2.29 µM (inactive). Also, the GI50 with TK-10 was 3.72 µM (inactive); with Malme-3M, 1.43 µM (inactive); with CCRF-CEM it was 1 µM (active).

Regarding `COC(=O)c1c2cccccc-2c(Cc2c3cccccc-3c(C(=O)OC)c2O)c1O`, the GI50 with KM12, in the assay on M14, in the assay with OVCAR-4, in the assay on SK-MEL-2, in the assay on OVCAR-3 and in the assay on SN12C was > 100 µM (inactive) in each case. Moreover, the GI50 is 86.5 µM (inactive) in the assay on SNB-75; > 100 µM (inactive) in the assay with HT-29; > 100 µM (inactive) in the assay with SK-MEL-5; > 100 µM (inactive) with CAKI-1; > 100 µM (inactive) in the assay with UACC-62; > 100 µM (inactive) in the assay on NCI-H522. Besides, the GI50 in the assay on IGROV-1, with TK-10, in the assay on Malme-3M and in the assay on CCRF-CEM was > 100 µM (inactive) in each case.

For `CC(=O)N1CC(=O)NC1=S`, the GI50 with KM12, in the assay on M14, in the assay on OVCAR-4, in the assay with SK-MEL-2, in the assay on OVCAR-3 and in the assay on SN12C was > 100 µM (inactive) in each case. Further, the GI50 is 69.3 µM (inactive) in the assay with SNB-75; > 100 µM (inactive) with HT-29; > 100 µM (inactive) in the assay with SK-MEL-5; > 100 µM (inactive) with CAKI-1; > 100 µM (inactive) with UACC-62; > 100 µM (inactive) in the assay with NCI-H522. Besides, the GI50 with IGROV-1, in the assay on TK-10, in the assay with Malme-3M and in the assay with CCRF-CEM was > 100 µM (inactive) each time.

Take `CCOC(=O)/C(C#N)=C(O)/C(=C\c1ccc(Br)cc1)NC(=O)c1ccccc1`: the GI50 in the assay with KM12, in the assay with M14, in the assay on OVCAR-4, in the assay on OVCAR-3, in the assay with SN12C and in the assay with SNB-75 was > 100 µM (inactive) throughout. For the same compound, the GI50 with HT-29, in the assay with SK-MEL-5, in the assay with CAKI-1, in the assay with UACC-62, in the assay with IGROV-1 and in the assay on TK-10 was > 100 µM (inactive) each time. Moreover, the GI50 with Malme-3M and in the assay with CCRF-CEM was > 100 µM (inactive) in each case.
